This assay addresses flavodoxin (Nitratidesulfovibrio vulgaris, UniProt P00323, W140F). The assay can be described thus: FMN retained on purification. The assay is classed as binding. The note with it: oxidized state; as purified, before FMN removal.

flavodoxin, sequence (P00323 whole entry W140F): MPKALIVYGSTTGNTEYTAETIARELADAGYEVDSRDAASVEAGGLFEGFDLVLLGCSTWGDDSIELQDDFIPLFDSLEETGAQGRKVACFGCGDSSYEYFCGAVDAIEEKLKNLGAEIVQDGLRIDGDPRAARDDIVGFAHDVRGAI

For the compound `Cc1cc2nc3c(=O)[nH]c(=O)nc-3n(C[C@H](O)[C@H](O)[C@H](O)COP(=O)(O)O)c2cc1C` [FMN], the “FMN retained on purification” value is “the two flavodoxin mutants (W60FY98F and W140F) contained the oxidized FMN”.
